Assay results as given in patent US9346824B2, “Cyclohexyl-4H,6H-5-oxa-2,3,10b-triaza-benzo[e]azulenes as V1a antagonists” (Hoffmann-La Roche Inc., priority 2011, dated 2016).

molecular target: T1, human V1a receptor (Homo sapiens, UniProt P37288); assay: human V1a receptor binding (3H-Vasopressin SPA, membranes of transfected HEK293 cells); conditions: HEK293 cell membranes, Ki by Cheng-Prussoff equation, read-out: pKi hV1a (converted)
T1 construct: expressed in transfected cells; host or cells: HEK293 cells, transiently transfected; cell membranes
T1 sequence (P37288 whole entry): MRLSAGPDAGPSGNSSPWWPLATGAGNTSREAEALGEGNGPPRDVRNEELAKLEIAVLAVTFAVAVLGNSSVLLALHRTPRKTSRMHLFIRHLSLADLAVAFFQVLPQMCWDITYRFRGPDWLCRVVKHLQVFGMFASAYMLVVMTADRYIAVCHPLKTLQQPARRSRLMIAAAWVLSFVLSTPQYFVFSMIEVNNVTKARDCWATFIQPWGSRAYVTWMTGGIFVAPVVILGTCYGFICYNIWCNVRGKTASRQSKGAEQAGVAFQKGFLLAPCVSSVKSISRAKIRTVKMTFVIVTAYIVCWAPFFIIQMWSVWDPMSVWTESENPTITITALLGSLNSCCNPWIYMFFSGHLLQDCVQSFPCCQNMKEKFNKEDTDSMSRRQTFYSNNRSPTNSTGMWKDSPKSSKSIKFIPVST
Protocol: The human V1a receptor was cloned by RT-PCR from total human liver RNA. The coding sequence was subcloned in an expression vector after sequencing to confirm the identity of the amplified sequence. […] Cell membranes were prepared from HEK293 cells transiently transfected with the expression vector and grown in 20 liter fermenters with the following protocol.
50 g of cells are resuspended in 30 ml freshly prepared ice cold Lysis buffer (50 mM HEPES, 1 mM EDTA, 10 mM MgCl2 adjusted to pH=7.4+complete cocktail of protease inhibitor (Roche Diagnostics)). Homogenized with Polytron for 1 min and sonicated on ice for 2×2 minutes at 80% intensity (Vibracell sonicator). The preparation is centrifuged 20 min at 500 g at 4° C., the pellet is discarded and the supernatant centrifuged 1 hour at 43′000 g at 4° C. (19,000 rpm). The pellet is resuspended in 12.5 ml Lysis buffer+12.5 ml Sucrose 20% and homogenized using a Polytron for 1-2 min. The protein concentration is determined by the Bradford method and aliquots are stored at −80° C. until use. For binding studies 60 mg Yttrium silicate SPA beads (Amersham) are mixed with an aliquot of membrane in binding buffer (50 mM Tris, 120 mM NaCl, 5 mM KCl, 2 mM CaCl2, 10 mM MgCl2) for 15 minutes with mixing. 50 μl of bead/membrane mixture is then added to each well of a 96 well plate, followed by 50 μl of 4 nM 3H-Vasopressin (American Radiolabeled Chemicals). For total binding measurement 100 μl of binding buffer are added to the respective wells, for non-specific binding 100 μl of […] cold vasopressin and for compound testing 100 μl of a serial dilution of each compound in 2% DMSO. The plate is incubated 1 h at room temperature, centrifuged 1 min at 1000 g and counted on a Packard Top-Count. Non-specific binding counts are subtracted from each well and data is normalized to the maximum specific binding set at 100%. To calculate an IC 50 the curve is fitted using a non-linear regression model (XLfit) and the Ki is calculated using the Cheng-Prussoff equation.

SMILES | Ki [nM]
Clc1ccc2c(c1)COCc1nnc([C@H]3CC[C@H](c4nsc5ccccc54)CC3)n1-2 [Example 3, 1-(4-Benzo[d]isothiazol-3-yl-cyclohexyl)-8-chloro-4H,6H-5-oxa-2,3,10b-triaza-benzo[e]azulene] | 0.288
FC(F)(C1CCCC1)[C@H]1CC[C@H](c2nnc3n2-c2ccc(Cl)cc2COC3)CC1 [Example 8, 8-Chloro-1-[4-(cyclopentyl-difluoro-methyl)-cyclohexyl]-4H,6H-5-oxa-2,3,10b-triaza-benzo[e]azulene] | 2.4
Clc1ccc2c(c1)COCc1nnc([C@H]3CC[C@H](c4n[nH]c5c4CCCC5)CC3)n1-2 [Example 6, 8-Chloro-1-[4-(4,5,6,7-tetrahydro-1H-indazol-3-yl)-cyclohexyl]-4H,6H-5-oxa-2,3,10b-triaza-benzo[e]azulene] | 4.9
Cc1cc([C@H]2CC[C@H](c3nnc4n3-c3ccc(Cl)cc3COC4)CC2)no1 [Example 4, 8-Chloro-1-[4-(5-methyl-isoxazol-3-yl)-cyclohexyl]-4H,6H-5-oxa-2,3,10b-triaza-benzo[e]azulene] | 3.98
Fc1cccnc1[C@H]1CC[C@H](c2nnc3n2-c2ccc(Cl)cc2COC3)CC1 [Example 1] | 2.4
CC(C)C[C@H]1CC[C@H](c2nnc3n2-c2ccc(Cl)cc2COC3)CC1 [Example 9, 8-Chloro-1-(4-isobutyl-cyclohexyl)-4H,6H-oxa-2,3,10b-triaza-benzo[e]azulene] | 25.7
Clc1ccc2c(c1)COCc1nnc([C@H]3CC[C@H](c4noc5ccccc54)CC3)n1-2 [Example 2, 1-(4-Benzo[d]isoxazol-3-yl-cyclohexyl)-8-chloro-4H,6H-5-oxa-2,3,10b-triaza-benzo[e]azulene] | 7.41
Clc1ccc2c(c1)COCc1nnc([C@H]3CC[C@H](c4onc5c4CCCC5)CC3)n1-2 [Example 5, 8-Chloro-1-[4-(4,5,6,7-tetrahydro-benzo[c]isoxazol-3-yl)-cyclohexyl]-4H,6H-5-oxa-2,3,10b-triaza-benzo[e]azulene] | 15.5
Cc1nc([C@H]2CC[C@H](c3nnc4n3-c3ccc(Cl)cc3COC4)CC2)no1 [Example 7, 8-Chloro-1-[4-(5-methyl-[1,2,4]oxadiazol-3-yl)-cyclohexyl]-4H,6H-5-oxa-2,3,10b-triaza-benzo[e]azulene] | 32.4
